Results taken from patent publication US7547759B2, “Induction of tumor immunity by variants of folate binding protein” (Board of Regents, The University of Texas System, priority 2001, dated 2009).
Entries after “also recorded” stand apart in the source; their conditions may differ.

What was measured:
[1] = system: peripheral blood mononuclear cells (PBMC); test: IFN-γ induction in PBMC with multiple peptide stimulations; type: cell-based, human
Excerpt: FIG. 2A illustrates IFN-γ induction in peripheral blood mononuclear cells (PBMC) with multiple stimulations with J65 or E39.
(§1) The HLA-A2 stabilizing ability of the variant peptides has also been determined (FIG. 1). […] In contrast, substitutions at position 1 increase the binding affinity of the peptide. The results in FIG. 2 show the cytolytic activity of J65-induced CTL compared with E39-induced CTL.
(§2) To address the effects of FBP variants on induction of CTL activity, PBMC cultures from the healthy donor stimulated three times with J65 were split in three and restimulated with either E39 or J65 or J77. A control culture was made of the same PBMC stimulated three times with E39 and restimulated with E39 for the fourth time. […] It was recently reported that memory CTL reacting with the tumor Ag such as FBP are present in the blood of healthy individuals (Lee et al., 2000). These cells can be easily activated by stimulation with the corresponding peptide presented on dendritic cells (Kim et al., 1999). To evaluate the stimulating ability of the analogs J65 and J77, PBMC from a responding donor were stimulated with E39, J65 and J77.

[2] = system: HLA-A2; test: HLA-A2 stabilization by FBP epitope E39 variants; type: binding, human; settings: FIG. 1; compared with wild-type E39
Excerpt: as §1

[3] = system: peripheral blood mononuclear cells (PBMC); test: Specific IL-2 induction in PBMC by priming with E39 variants; type: cell-based, human; settings: PBMC of responding donor; compared with wild-type peptide E39; FIG. 3
Excerpt: FIG. 3 illustrates specific interleukin 2 (IL-2) induction in PBMCs by priming with E39 variants.
(§3) To identify which of E39 variants induced higher cell expansion, PBMC from the same donor were stimulated three times with the corresponding peptide, and the resulting live cells were counted a week after each stimulation. […] Similar results were obtained with J65 in another donor (FIG. 5).

[4] = system: peripheral blood mononuclear cells (PBMC); test: CTL activity in PBMC with multiple peptide stimulations; type: cell-based, human; settings: for CTL activity: recognition of E39: healthy donor PBMC stimulated three times with the peptide, then restimulated with E39
Excerpt: FIG. 2B illustrates CTL activity in PBMC with multiple stimulations with J65 or E39.
CTL activity can be assessed by methods described herein or as would be known to one of skill in the art. For example, CTLs may be assessed in freshly isolated peripheral blood mononuclear cells (PBMC), in a phytohaemaglutinin-stimulated IL-2 expanded cell line established from PBMC (Bernard et at., 1998) or by T cells isolated from a previously immunized subject and restimulated for 6 days with DC infected with an adenovirus vector containing antigen using standard 4 h 51^Cr release microtoxicity assays. In another fluorometric assay developed for detecting cell-mediated cytotoxicity, the fluorophore used is the non-toxic molecule ALAMARBLUE (dye) (Nociari et at., 1998). The ALAMARBLUE (dye) is fluorescently quenched (i.e., low quantum yield) until mitochondrial reduction occurs, which then results in a dramatic increase in the alamarBlue fluorescence intensity (i.e., increase in the quantum yield).
as §2

[5] = system: peripheral blood mononuclear cells (PBMC); test: Expansion of PBMC stimulated with FBP peptide E39 and its variants (live cell counts); type: cell-based, human
Excerpt: FIG. 4 illustrates expansion of PBMCs stimulated with FBP peptide E39 and its variants.
as §3

[6] = biological target: HLA-A2 (human); test: HLA-A2 stabilization assay (FIG. 1)
[7] = same donor, stimulated three times with peptide, live cells counted a week after each stimulation, FIG. 4

EIWTFSTKV [J65, E39 variant H5→F, Y7→T]
IFN-γ induction ([1]; 3×J65 stimulated PBMC cultures restimulated with the peptide, FIG. 2): weaker inducer of IFN-γ | IFN-γ secretion elicited by wild-type epitope E39 in peptide-primed CTL ([1]; CTL primed with the peptide, then stimulated with E39): higher | HLA-A2 stabilizing ability [2]: almost half of the stabilizing ability of E39 | IL-2 induction [3]: lower levels of IL-2 | CTL activity: recognition of E39 [4]: significantly higher recognition of E39; also recorded: higher CTL activity | cell expansion of PBMC cultures ([5]; another donor, FIG. 5): expanded faster | cell expansion of PBMC cultures [5, 7]: increased faster in numbers

EIWTFSYKV [J78, E39 variant H5→F]
cell expansion of PBMC cultures ([5]; another donor, FIG. 5): expanded, but at a slower rate | cell expansion of PBMC cultures [5, 7]: proliferated slower than control cultures

EIWTHSTKV [J77, E39 variant Y7→T]
IL-2 induction [3]: lower levels of IL-2 | CTL activity ([4]; healthy donor PBMC stimulated three times with J65 (3×J65), restimulated with the peptide): significantly lower CTL activity | cell expansion of PBMC cultures ([5]; another donor, FIG. 5): expanded, but at a slower rate | cell expansion of PBMC cultures [5, 7]: proliferated slower than control cultures

EIWTHSYKV [E39, reference compound]
CTL activity: recognition of E39 [4]: moderate weak recognition of E39 | cell expansion of PBMC cultures ([5]; another donor, FIG. 5): died after the third stimulation | cell expansion of PBMC cultures [5, 7]: initially expanded faster than other cultures

EIWTFSTKV [J65 (variant of FBP epitope E39, H5→F, Y7→T)]
HLA-A2 stabilizing ability relative to E39 [6]: 0.5 fold of E39
